Where two headings read alike, the source gives them in different places. A value given as a limit tells only on which side of the number the result lay.

One assay addresses T1, Wee1 kinase domain (Homo sapiens, UniProt P30291).
T1 construct: Wee1 kinase domain was purchased from Carna (catalog #05-177); purchased Carna 05-177
The assay is described as follows: Wee1 Kinase Biochemical Assay (ADP-Glo). The note with it: 15 uM ATP. A digest of the protocol: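 Kinase domain (1 nM) incubated 4 h at 25 °C with 15 uM ATP and 2 ng/mL Poly(Lys,Tyr 4:1) in 40 mM Tris-HCl, 20 mM MgCl2, 0.1 mg/mL BSA, 2 mM DTT. ADP formation read by ADP-Glo luminescence; percent inhibition normalized to DMSO and saturating reference-inhibitor controls.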
(In general: ADP-Glo turns the ADP formed in a reaction into a luminescent signal.)

Assay [1] relates to phosphorylation of Cdc2 Y15 (Wee1 substrate) in A427 cells. The assay can be described thus: Phosphorylated Cdc2 MSD Electrochemiluminescence Assay. The format is cell-based. The conditions noted are these: Homo sapiens. In a few lines:
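A427 cells (RPMI 1640, 10% FBS) treated 20 h after plating with 3-fold serial compound dilutions, in duplicate, 37 °C, 5% CO2; total incubation 6 h. Lysate Cdc2 pY15 read by MSD electrochemiluminescence sandwich immunoassay; % remaining signal normalised to DMSO (high) and reference Wee1 inhibitor (low) controls.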

The mark [2] stands for this setting: class symbols, 1 nM Wee1 enzyme, 4 hours at 25° C.
The mark [3] stands for this setting: A-427, class symbols, read-out: A427 pCDC2 MSD IC50.

T1 sequence (P30291 299-569 limits assumed): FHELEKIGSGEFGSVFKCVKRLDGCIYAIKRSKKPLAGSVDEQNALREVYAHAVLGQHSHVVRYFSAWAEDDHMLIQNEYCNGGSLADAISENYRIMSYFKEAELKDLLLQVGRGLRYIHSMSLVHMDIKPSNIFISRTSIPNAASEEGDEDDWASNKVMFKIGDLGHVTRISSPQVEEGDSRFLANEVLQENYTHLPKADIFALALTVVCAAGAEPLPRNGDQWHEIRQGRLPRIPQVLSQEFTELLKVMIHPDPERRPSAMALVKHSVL

Broadly, the IC50 is the concentration that inhibits the measured activity by half. `CN1CC2(C1)CN(c1ccc(Nc3ncc4c(n3)N(c3cccc(C(C)(C)O)n3)[C@@H]3CC(C)(C)OC[C@]43C)cc1)C2` (single isomer, unassigned) [Example 443]: the IC50 at Wee1 kinase domain (setting [2]) is under 10 nM; in assay [1] (setting [3]) it was 100 to 1000 nM.

`CN1CCN(c2ccc(Nc3ncc4c(n3)N(c3ccn(C)n3)[C@@H]3CC(C)(C)OC[C@]43C)cc2)CC1` (single isomer, unassigned) [Example 717]: the IC50 was under 10 nM against Wee1 kinase domain (setting [2]) and 100 to 1000 nM in assay [1] (setting [3]).

For the compound `CN1CCC[C@@H]1c1cccc(N2c3nc(Nc4ccn(C5CCOCC5)c(=O)c4)ncc3[C@@]3(C)COC(C)(C)C[C@@H]23)n1` (single isomer, unassigned) [Example 395], the IC50 against Wee1 kinase domain (Wee1 kinase domain, ADP-Glo) is under 10 nM; in assay [1] (A-427, pCDC2 MSD) it was 100 to 1000 nM.

With `CC1(C)C[C@H]2N(c3cccc(N=S(C)(C)=O)n3)c3nc(NC(=O)C4CC4)ncc3[C@@]2(C)CO1` (single isomer, unassigned) [Example 399], the values for the IC50 (against Wee1 kinase domain (setting [2]); in assay [1] (setting [3])) were under 10 nM and 100 to 1000 nM, respectively.

As for `CC1(C)C[C@H]2N(c3cccc(N=S(C)(C)=O)n3)c3nc(Nc4ccc(N5C[C@@H]6C[C@H]5CO6)cc4)ncc3[C@@]2(C)CO1` (single isomer, unassigned) [Example 497], the results for the IC50 (at Wee1 kinase domain (setting [2]); in assay [1] (setting [3])) were under 10 nM and 100 to 1000 nM, respectively.

Consider `CN1CCC(n2ccc(Nc3ncc4c(n3)N(c3cccc(C(C)(C)O)n3)[C@@H]3CC(C)(C)OC[C@]43C)cc2=O)CC1` (single isomer, unassigned) [Example 810], for which the figures for the IC50 (against Wee1 kinase domain (setting [2]); in assay [1] (setting [3])) were under 10 nM and 100 to 1000 nM, respectively.

`Cc1ccc(Nc2ncc3c(n2)N(c2cccc(N=S(C)(C)=O)n2)[C@@H]2CC(C)(C)OC[C@]32C)cn1` (single isomer, unassigned) [Example 491]: the figures for the IC50 (against Wee1 kinase domain (setting [2]); in assay [1] (setting [3])) were under 10 nM and 100 to 1000 nM, respectively.

`CNCc1cccc(N2c3nc(NC(=O)[C@@H]4C[C@H]4c4cccnc4)ncc3[C@@]3(C)COC(C)(C)C[C@@H]23)n1` [Example 768, (1R,2R)-2-(pyridin-3-yl)-N-((4bR,8aR)-4b,7,7-trimethyl-9-(6-((methylamino)methyl)pyridin-2-yl)-4b,5,7,8,8a,9-hexahydropyrano[3′,4′:4,5]pyrrolo[2,3-d]pyrimidin-2-yl)cyclopropane-1-carboxamide]: the values for the IC50 (on Wee1 kinase domain (setting [2]); in assay [1] (setting [3])) were under 10 nM and 100 to 1000 nM, respectively.

In the case of `CNCc1cccc(N2c3nc(Nc4ccc(N5CCOCC5)cc4)ncc3[C@@]3(C)COCC[C@@H]23)n1` (single isomer, unassigned) [Example 572], the 50% inhibitory concentration (IC50) was under 10 nM against Wee1 kinase domain (setting [2]) and 100 to 1000 nM in assay [1] (setting [3]).

`CN1CC2(C1)CN(c1ccc(Nc3ncc4c(n3)N(c3cccc(P(C)(C)=O)n3)[C@@H]3CC(C)(C)OC[C@]43C)cc1)C2` (single isomer, unassigned) [Example 775]: the IC50 is under 10 nM on Wee1 kinase domain (setting [2]) and 100 to 1000 nM in assay [1] (setting [3]).

Consider `CNCc1cccc(N2c3nc(Nc4ccn(C5CCOCC5)c(=O)c4)ncc3[C@@]3(C)COC(C)(C)C[C@@H]23)n1` (single isomer, unassigned) [Example 386], for which the IC50 against Wee1 kinase domain (Wee1 kinase domain, ADP-Glo) is under 10 nM; in assay [1] (A-427, pCDC2 MSD) it was 100 to 1000 nM.

In the case of `CNCc1cccc(N2c3nc(Nc4ccc(C(C)(C)C)cc4)ncc3[C@@]3(C)COC(C)(C)C[C@@H]23)n1` (single isomer, unassigned) [Example 73], the IC50 at Wee1 kinase domain (Wee1 kinase domain, ADP-Glo) was under 10 nM; in assay [1] (A-427, pCDC2 MSD), 100 to 1000 nM.

Turning to `CC1(C)C[C@H]2N(c3cccc(N=S(C)(C)=O)n3)c3nc(Nc4cnn(C(F)(F)F)c4)ncc3[C@@]2(C)CO1` (single isomer, unassigned) [Example 488], the IC50 on Wee1 kinase domain (setting [2]) is under 10 nM; in assay [1] (setting [3]), 100 to 1000 nM.

For the compound `Cc1cc(Nc2ncc3c(n2)N(c2cccc(N4CCOC4=O)n2)[C@@H]2CC(C)(C)OC[C@]32C)ccc1N1C[C@@H]2C[C@H]1CN2C` [Example 654, 3-(6-((4bR,8aR)-4b,7,7-trimethyl-2-((3-methyl-4-((1S,4S)-5-methyl-2,5-diazabicyclo[2.2.1]heptan-2-yl)phenyl)amino)-4b,7,8,8a-tetrahydropyrano[3′,4′:4,5]pyrrolo[2,3-d]pyrimidin-9(5H)-yl)pyridin-2-yl)oxazolidin-2-one], the IC50 at Wee1 kinase domain (setting [2]) was under 10 nM; in assay [1] (setting [3]), 100 to 1000 nM.

`C[C@H]1COC(=O)N1c1cccc(N2c3nc(Nc4ccc(N5C[C@@H]6C[C@H]5CN6C)c(F)c4)ncc3[C@@]3(C)COC(C)(C)C[C@@H]23)n1` (single isomer, unassigned) [Example 293]: the IC50 on Wee1 kinase domain (Wee1 kinase domain, ADP-Glo) was under 10 nM; in assay [1] (A-427, pCDC2 MSD), 100 to 1000 nM.

Consider `Cc1cc(Nc2ncc3c(n2)N(c2cccc(N4CCCC4=O)n2)[C@@H]2CC(C)(C)OC[C@]32C)ccc1N1C[C@@H]2C[C@H]1CN2C` [Example 652, 1-(6-((4bR,8aR)-4b,7,7-trimethyl-2-((3-methyl-4-((1S,4S)-5-methyl-2,5-diazabicyclo[2.2.1]heptan-2-yl)phenyl)amino)-4b,7,8,8a-tetrahydropyrano[3′,4′:4,5]pyrrolo[2,3-d]pyrimidin-9(5H)-yl)pyridin-2-yl)pyrrolidin-2-one], for which the IC50 is under 10 nM on Wee1 kinase domain (setting [2]) and 100 to 1000 nM in assay [1] (setting [3]).

For the compound `CN[C@H](Cc1ccc(Nc2ncc3c(n2)N(c2cccc(N4C(=O)OC[C@@H]4C)n2)[C@@H]2CC(C)(C)OC[C@]32C)cc1)C(=O)O` (single isomer, unassigned) [Example 323], the IC50 at Wee1 kinase domain (Wee1 kinase domain, ADP-Glo) is under 10 nM; in assay [1] (A-427, pCDC2 MSD), 100 to 1000 nM.

Turning to `CC1(C)C[C@H]2N(c3cccc([C@@H]4CCCN4)n3)c3nc(Nc4ccc(N5CCOCC5)cc4)ncc3[C@@]2(C)CO1` (single isomer, unassigned) [Example 526], the results for the IC50 (against Wee1 kinase domain (setting [2]); in assay [1] (setting [3])) were under 10 nM and 100 to 1000 nM, respectively.

Regarding `C[C@@H]1COC(=O)N1c1cccc(N2c3nc(Nc4ccc(N5CCN(C)CC5)cc4)ncc3[C@@]3(C)COC(C)(C)C[C@@H]23)n1` (single isomer, unassigned) [Example 589], the 50% inhibitory concentration (IC50) at Wee1 kinase domain (setting [2]) is under 10 nM; in assay [1] (setting [3]) it was 100 to 1000 nM.

As to `CC1(C)C[C@H]2N(c3cccc(N4CCCC4=O)n3)c3nc(Nc4ccc([C@H]5CCNC5)cc4)ncc3[C@@]2(C)CO1` [Example 636, 1-(6-((4bR,8aR)-4b,7,7-trimethyl-2-((4-((R)-pyrrolidin-3-yl)phenyl)amino)-4b,7,8,8a-tetrahydropyrano[3′,4′:4,5]pyrrolo[2,3-d]pyrimidin-9(5H)-yl)pyridin-2-yl)pyrrolidin-2-one], the IC50 against Wee1 kinase domain (setting [2]) is under 10 nM; in assay [1] (setting [3]) it was 100 to 1000 nM.

In the case of `CN1CC[C@@H](Oc2ccc(Nc3ncc4c(n3)N(c3cccc(N5CCCC5=O)n3)[C@@H]3CC(C)(C)OC[C@]43C)cc2)C1` [Example 626, 1-(6-((4bR,8aR)-4b,7,7-trimethyl-2-((4-(((R)-1-methylpyrrolidin-3-yl)oxy)phenyl)amino)-4b,7,8,8a-tetrahydropyrano[3′,4′:4,5]pyrrolo[2,3-d]pyrimidin-9(5H)-yl)pyridin-2-yl)pyrrolidin-2-one], the figures for the half-inhibitory concentration (IC50) (against Wee1 kinase domain (setting [2]); in assay [1] (setting [3])) were under 10 nM and 100 to 1000 nM, respectively.

In the case of `CNCc1cccc(N2c3nc(Nc4ccc(-n5ccnc5)c(F)c4)ncc3[C@@]3(C)COC(C)(C)C[C@@H]23)n1` (single isomer, unassigned) [Example 466], the IC50 on Wee1 kinase domain (setting [2]) is under 10 nM; in assay [1] (setting [3]), 1000 to 10000 nM.

Consider `CC1(C)C[C@H]2N(c3cccc(N=S(C)(C)=O)n3)c3nc(Nc4ccc([C@@H]5CCNC5)cc4)ncc3[C@@]2(C)CO1` (single isomer, unassigned) [Example 131], for which the IC50 against Wee1 kinase domain (Wee1 kinase domain, ADP-Glo) is under 10 nM; in assay [1] (A-427, pCDC2 MSD), under 100 nM.

Consider `CN1C[C@@H]2C[C@H]1CN2c1ccc(Nc2ncc3c(n2)N(c2cccc(C4(O)COC4)n2)[C@@H]2CC(C)(C)OC[C@]32C)cc1` (single isomer, unassigned) [Example 518], for which the IC50 against Wee1 kinase domain (setting [2]) was under 10 nM; in assay [1] (setting [3]), 100 to 1000 nM.

With `Cc1ncc(Nc2ncc3c(n2)N(c2cccc(N=S(C)(C)=O)n2)[C@@H]2CC(C)(C)OC[C@]32C)cn1` (single isomer, unassigned) [Example 373], the IC50 was under 10 nM against Wee1 kinase domain (Wee1 kinase domain, ADP-Glo) and 100 to 1000 nM in assay [1] (A-427, pCDC2 MSD).

For `C[C@H]1COC(=O)N1c1cccc(N2c3nc(Nc4ccc([C@H]5CCNC5)nc4)ncc3[C@@]3(C)COC(C)(C)C[C@@H]23)n1` (single isomer, unassigned) [Example 259], the concentration for half-maximal inhibition (IC50) against Wee1 kinase domain (Wee1 kinase domain, ADP-Glo) was under 10 nM; in assay [1] (A-427, pCDC2 MSD), 100 to 1000 nM.

In the case of `CC1(C)C[C@H]2N(c3cccc(N=S(C)(C)=O)n3)c3nc(Nc4ccc([C@H]5CCCN5)nc4)ncc3[C@@]2(C)CO1` (single isomer, unassigned) [Example 212], the IC50 on Wee1 kinase domain (Wee1 kinase domain, ADP-Glo) is under 10 nM; in assay [1] (A-427, pCDC2 MSD), 100 to 1000 nM.

`Cc1cc(Nc2ncc3c(n2)N(c2cccc(C(C)(C)O)n2)[C@@H]2CC(C)(C)OC[C@]32C)ccc1C1CCN(C)CC1` (single isomer, unassigned) [Example 8]: the IC50 was under 10 nM at Wee1 kinase domain (Wee1 kinase domain, ADP-Glo) and 100 to 1000 nM in assay [1] (A-427, pCDC2 MSD).

On to `Cc1cc(Nc2ncc3c(n2)N(c2cccc(N4C(=O)OC[C@@H]4C)n2)[C@@H]2CC(C)(C)OC[C@]32C)ccc1N1C[C@@H]2C[C@H]1CN2C` (single isomer, unassigned) [Example 295], for which the IC50 was under 10 nM against Wee1 kinase domain (Wee1 kinase domain, ADP-Glo) and 100 to 1000 nM in assay [1] (A-427, pCDC2 MSD).

On to `CC1(C)C[C@H]2N(c3cccc(N=S(C)(C)=O)n3)c3nc(Nc4ccn([C@H]5CCOC5)c(=O)c4)ncc3[C@@]2(C)CO1` (single isomer, unassigned) [Example 376], for which the concentration for half-maximal inhibition (IC50) was under 10 nM against Wee1 kinase domain (Wee1 kinase domain, ADP-Glo) and 100 to 1000 nM in assay [1] (A-427, pCDC2 MSD).

(Values after patent publication US20260166039A1 (SCHRÖDINGER, INC., priority 2022, published 2026).)
